In patent publication US20250136633A1, “TELOMERE-TARGETING PHOSPHATIDYL-THIO CONJUGATES” (MAIA BIOTECHNOLOGY, INC., priority 2023, published 2025):

Columns and labels:
[1] = tested on: HT29 Colorectal Carcinoma Cells (CRC); assay: In vitro anticancer activity (cytotoxicity) of phosphatidyl-THIO conjugates in HT29 cells; format: cell-based; conditions: for EC50: Homo sapiens, HT 29 CRC cells; for anticancer (cytotoxic) activity, in words: in vitro, comparison among the phosphatidyl conjugates and with the free pharmacophores
Procedure: The in vitro activity of Phosphatidyl-THIO conjugates were tested in HT29 Colorectal Carcinoma Cells (CRC) (Table 2)
Anticancer activity of the one or more phosphatidyl-THIO conjugate compounds disclosed herein, was evaluated in vitro in various cancer cell lines, according to commonly used procedures for assessment of compounds cytotoxicity, as out lined in the following publications: Mender, I., Gryaznov, S., Dikmen, Z. G., Wright, W. E., & Shay, J. W. (2015). Induction of telomere dysfunction mediated by the telomerase substrate precursor 6-thio-2′-deoxyguanosine. Cancer Discovery, 5, 82-95; Mender et al., (2020). Telomere Stress Potentiates STING-Dependent Anti-tumor Immunity. Cancer Cell, 38, 400-411.

cancer cells = assay: Induction of telomere dysfunction-induced foci (TIF) and micronuclei in cancer cells; format: cell-based; conditions: treatment of cancer cells; data not shown

SMILES	EC50 [1]	anticancer (cytotoxic) activity, in words [1]	induction of telomere dysfunction-induced foci (TIF)-positive cells and micronuclei formation (cancer cells)
CCCCCCCC/C=C\CCCCCCCC(=O)OC[C@H](COP(=O)(O)OC[C@H]1O[C@@H](n2cnc3c(=S)[nH]c(N)nc32)C[C@@H]1O)OC(=O)CCCCCCC/C=C\CCCCCCCC [C18:01-6SdG, 5′-(1,2-dioleoyl-sn-glycero-3-phospho)-6-thio-2′-deoxyguanosine]	460 nM	essentially recovered cytotoxic activity	–
Nc1nc2c(ncn2[C@H]2C[C@H](O)[C@@H](CO)O2)c(=S)[nH]1 [Compound 6-thio-dG, 6-thio-2′-deoxyguanosine, reference compound]	200 nM	–	–
CCCC(=O)OC[C@H](COP(=O)(O)OC[C@H]1O[C@@H](n2cnc3c(=S)[nH]c(N)nc32)C[C@@H]1O)OC(=O)CCC [Compound C4-6SdG, 5′-(1,2-dibutyryl-sn-glycero-3-phospho)-6-thio-2′-deoxyguanosine]	260 nM	–	–
CCCCCC(=O)OC[C@H](COP(=O)(O)OC[C@H]1O[C@@H](n2cnc3c(=S)[nH]c(N)nc32)C[C@@H]1O)OC(=O)CCCCC [Compound C6-6SdG, 5′-(1,2-dihexanoyl-sn-glycero-3-phospho)-6-thio-2′-deoxyguanosine]	80 nM	–	efficient induction
CCCCCC(=O)OC[C@H](COP(=O)(O)OC[C@H]1O[C@@H](n2cnc3c(=S)[nH]c(N)nc32)[C@H](O)[C@@H]1O)OC(=O)CCCCC [Compound C6-6SriboG, 5′-(1,2-dihexanoyl-sn-glycero-3-phospho)-6-thio-guanosine]	200 nM	–	–
CCCCCCCC(=O)OC[C@H](COP(=O)(O)OC[C@H]1O[C@@H](n2cnc3c(=S)[nH]c(N)nc32)C[C@@H]1O)OC(=O)CCCCCCC [Compound C8-6SdG, 5′-(1,2-dioctanoyl-sn-glycero-3-phospho)-6-thio-2′-deoxyguanosine]	350 nM	–	–
CCCCCCCC(=O)OC[C@H](COP(=O)(O)OC[C@H]1O[C@@H](n2cnc3c(=S)[nH]c(N)nc32)[C@H](O)[C@@H]1O)OC(=O)CCCCCCC [Compound C8-6SriboG, 5′-(1,2-dioctanoyl-sn-glycero-3-phospho)-6-thio-guanosine]	260 nM	–	–
CCCCCCCCCCCC(=O)OC[C@H](COP(=O)(O)OC[C@H]1O[C@@H](n2cnc3c(=S)[nH]c(N)nc32)C[C@@H]1O)OC(=O)CCCCCCCCCCC [Compound C12-6SdG, 5′-(1,2-dilauroyl-sn-glycero-3-phospho)-6-thio-2′-deoxyguanosine]	480 nM	–	–
CCCCCCCCCCCC(=O)OC[C@H](COP(=O)(O)OC[C@H]1O[C@@H](n2cnc3c(=S)[nH]c(N)nc32)[C@H](O)[C@@H]1O)OC(=O)CCCCCCCCCCC [Compound C12-6SriboG, 5′-(1,2-dilauroyl-sn-glycero-3-phospho)-6-thio-guanosine]	600 nM	–	–
CCCCCCCCCCCCCC(=O)OC[C@H](COP(=O)(O)OC[C@H]1O[C@@H](n2cnc3c(=S)[nH]c(N)nc32)C[C@@H]1O)OC(=O)CCCCCCCCCCCCC [Compound C14-6SdG, 5′-(1,2-dimyristoyl-sn-glycero-3-phospho)-6-thio-2′-deoxyguanosine]	490 nM	–	–
CCCCCCCCCCCCCCCCCC(=O)OC[C@H](COP(=O)(O)OC[C@H]1O[C@@H](n2cnc3c(=S)[nH]c(N)nc32)C[C@@H]1O)OC(=O)CCCCCCCCCCCCCCCCC [Compound C18-6SdG, 5′-(1,2-distearoyl-sn-glycero-3-phospho)-6-thio-2′-deoxyguanosine]	12400 nM	least active	–
